The target in test [1] is T1, GABA-A receptor; alpha-1/beta-2/gamma-2 (Homo sapiens) (UniProt P14867+P47870+P18507). The test is described as follows: Agonist activity at recombinant human GABA-A alpha1beta2gamma2S receptor transiently expressed in human tsA201 cells incubated for 30 mins and measured up to 90 secs by FMP dye based FLIPR membrane potential blue assay. The format is cell-based.
Test [2] concerns the target T1, GABA-A receptor; alpha-1/beta-2/gamma-2 (Homo sapiens). Nature of the test: Agonist activity at recombinant human GABA-A alpha1beta2gamma2S receptor transiently expressed in human tsA201 cells assessed as GABA-induced maximum response incubated for 30 mins and measured up to 90 secs by FMP dye based FLIPR membrane potential blue assay relative to GABA. The test is classed as cell-based.

Test [3] is filed under the species Homo sapiens. The test is described as follows: Agonist activity at recombinant human GABA-A alpha3beta2gamma2S receptor transiently expressed in human tsA201 cells assessed as GABA-induced maximum response incubated for 30 mins and measured up to 90 secs by FMP dye based FLIPR membrane potential blue assay relative to GABA. The format is cell-based.
In test [4] the target is T2, Gamma-aminobutyric acid receptor subunit alpha-4/beta-2/gamma-2 (Homo sapiens, UniProt P47870+P18507+P48169). Nature of the test: Agonist activity at recombinant human GABA-A alpha4beta2gamma2S receptor transiently expressed in human tsA201 cells incubated for 30 mins and measured up to 90 secs by FMP dye based FLIPR membrane potential blue assay. The format is cell-based.

The target in test [5] is T2, Gamma-aminobutyric acid receptor subunit alpha-4/beta-2/gamma-2. The test is described as follows: Agonist activity at recombinant human GABA-A alpha4beta2gamma2S receptor transiently expressed in human tsA201 cells assessed as GABA-induced maximum response incubated for 30 mins and measured up to 90 secs by FMP dye based FLIPR membrane potential blue assay relative to GABA. The format is cell-based.

Test [6] concerns the target Gamma-aminobutyric acid receptor subunit alpha-5/beta-2/gamma-2 (Homo sapiens) (UniProt P47870+P18507+P31644). Nature of the test: Agonist activity at recombinant human GABA-A alpha5beta2gamma2S receptor transiently expressed in human tsA201 cells assessed as GABA-induced maximum response incubated for 30 mins and measured up to 90 secs by FMP dye based FLIPR membrane potential blue assay relative to GABA. The test is classed as cell-based.

For test [7], the target named is Gamma-aminobutyric acid receptor subunit rho-1 (Homo sapiens, UniProt P24046). Nature of the test: Agonist activity at recombinant human GABA-A rho-1 receptor transiently expressed in human tsA201 cells assessed as GABA-induced maximum response incubated for 30 mins and measured up to 90 secs by FMP dye based FLIPR membrane potential blue assay relative to GABA. The format is cell-based.

In test [8] the target is T2, Gamma-aminobutyric acid receptor subunit alpha-4/beta-2/gamma-2. Nature of the test: Agonist activity at recombinant human GABA-A alpha4beta2gamma2S receptor transiently expressed in human tsA201 cells at >= 100 uM incubated for 30 mins and measured up to 90 secs by FMP dye based FLIPR membrane potential blue assay. The test is classed as cell-based.
For test [9], the target named is T1, GABA-A receptor; alpha-1/beta-2/gamma-2 (Homo sapiens). The test is described as follows: Agonist activity at recombinant human GABA-A alpha1beta2gamma2S receptor transiently expressed in human tsA201 cells at >= 10 uM incubated for 30 mins and measured up to 90 secs by FMP dye based FLIPR membrane potential blue assay. The format is cell-based.
For test [10], the species on record is Homo sapiens. The test is described as follows: Agonist activity at recombinant human GABA-A alpha3beta2gamma2S receptor transiently expressed in human tsA201 cells at >= 30 uM incubated for 30 mins and measured up to 90 secs by FMP dye based FLIPR membrane potential blue assay. The test is classed as cell-based.
The target in test [11] is Sodium- and chloride-dependent GABA transporter 1 (Homo sapiens, UniProt P30531). Nature of the test: Inhibition of human GAT1 expressed in Flp-In CHO cells assessed as reduction in [3H]GABA uptake at 100 uM incubated for 3 mins by liquid scintillation counting method relative to control. The format is cell-based.
Test [12] addresses T3, Sodium- and chloride-dependent GABA transporter 2 (Homo sapiens) (UniProt Q9NSD5).
T3 sequence (whole entry): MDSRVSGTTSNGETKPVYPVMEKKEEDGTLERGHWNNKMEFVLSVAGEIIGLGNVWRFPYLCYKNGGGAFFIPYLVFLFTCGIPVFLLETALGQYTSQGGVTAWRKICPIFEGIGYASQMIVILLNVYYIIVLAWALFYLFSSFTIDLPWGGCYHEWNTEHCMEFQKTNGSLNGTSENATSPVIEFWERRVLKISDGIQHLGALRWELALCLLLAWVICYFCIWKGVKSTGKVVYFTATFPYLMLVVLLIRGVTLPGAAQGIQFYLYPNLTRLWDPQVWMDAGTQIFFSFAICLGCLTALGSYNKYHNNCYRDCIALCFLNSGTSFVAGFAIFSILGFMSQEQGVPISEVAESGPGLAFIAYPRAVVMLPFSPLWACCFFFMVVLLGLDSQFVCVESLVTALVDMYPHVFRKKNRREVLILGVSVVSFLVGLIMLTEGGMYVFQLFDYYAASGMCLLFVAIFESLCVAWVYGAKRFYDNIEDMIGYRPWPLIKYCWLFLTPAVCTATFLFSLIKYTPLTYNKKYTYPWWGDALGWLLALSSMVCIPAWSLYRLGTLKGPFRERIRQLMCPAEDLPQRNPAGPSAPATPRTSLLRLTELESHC
The test is described as follows: Inhibition of human GAT2 expressed in Flp-In CHO cells assessed as reduction in [3H]GABA uptake at 100 uM incubated for 3 mins by liquid scintillation counting method relative to control. The format is cell-based.

Test [13] deals with T4, Sodium- and chloride-dependent GABA transporter 3 (Homo sapiens) (UniProt P48066).
T4 sequence (whole entry): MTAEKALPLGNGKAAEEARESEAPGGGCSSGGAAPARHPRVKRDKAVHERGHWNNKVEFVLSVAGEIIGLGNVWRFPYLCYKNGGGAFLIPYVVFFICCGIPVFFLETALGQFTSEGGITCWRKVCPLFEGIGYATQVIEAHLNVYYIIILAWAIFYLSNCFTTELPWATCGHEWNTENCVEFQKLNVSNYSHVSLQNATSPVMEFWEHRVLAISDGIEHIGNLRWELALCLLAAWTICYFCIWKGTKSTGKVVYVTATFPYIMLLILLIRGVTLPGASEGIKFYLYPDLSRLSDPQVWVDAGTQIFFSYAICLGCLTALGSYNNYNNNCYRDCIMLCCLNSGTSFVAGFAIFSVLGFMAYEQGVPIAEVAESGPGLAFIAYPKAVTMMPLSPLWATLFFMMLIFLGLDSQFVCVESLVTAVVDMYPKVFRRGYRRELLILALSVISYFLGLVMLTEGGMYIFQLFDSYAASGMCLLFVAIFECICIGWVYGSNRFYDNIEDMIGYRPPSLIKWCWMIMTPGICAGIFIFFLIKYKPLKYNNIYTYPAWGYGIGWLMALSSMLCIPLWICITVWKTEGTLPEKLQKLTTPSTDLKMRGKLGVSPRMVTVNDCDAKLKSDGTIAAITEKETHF
Nature of the test: Inhibition of human GAT3 expressed in Flp-In CHO cells assessed as reduction in [3H]GABA uptake at 100 uM incubated for 3 mins by liquid scintillation counting method relative to control. The test is classed as cell-based.

The target in test [14] is T5, Sodium- and chloride-dependent betaine transporter (Homo sapiens) (UniProt P48065).
T5 sequence (whole entry): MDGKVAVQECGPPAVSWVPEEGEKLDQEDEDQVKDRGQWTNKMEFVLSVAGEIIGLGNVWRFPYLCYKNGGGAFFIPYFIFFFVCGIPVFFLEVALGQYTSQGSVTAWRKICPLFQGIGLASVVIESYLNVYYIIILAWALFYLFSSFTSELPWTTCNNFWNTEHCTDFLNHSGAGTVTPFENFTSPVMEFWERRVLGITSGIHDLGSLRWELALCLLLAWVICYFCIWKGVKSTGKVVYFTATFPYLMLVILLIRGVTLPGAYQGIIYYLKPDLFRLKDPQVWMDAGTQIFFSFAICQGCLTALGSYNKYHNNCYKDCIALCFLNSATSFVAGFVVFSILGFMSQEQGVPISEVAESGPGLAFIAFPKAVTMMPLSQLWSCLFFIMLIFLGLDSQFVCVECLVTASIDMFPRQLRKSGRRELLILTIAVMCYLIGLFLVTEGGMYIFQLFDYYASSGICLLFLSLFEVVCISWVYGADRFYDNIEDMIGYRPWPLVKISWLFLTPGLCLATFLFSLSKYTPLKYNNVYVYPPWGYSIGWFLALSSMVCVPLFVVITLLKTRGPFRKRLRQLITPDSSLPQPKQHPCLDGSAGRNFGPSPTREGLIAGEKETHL
Nature of the test: Inhibition of human BGT1 expressed in Flp-In CHO cells assessed as reduction in [3H]GABA uptake at 100 uM incubated for 3 mins by liquid scintillation counting method relative to control. The test is classed as cell-based.

The species named for test [15] is Homo sapiens.

Structures are written as SMILES. Activity calls are given as the source filed them. The rule behind the calls is not given here. Bounds are passed on as bounds.

Sequence of Gamma-aminobutyric acid receptor subunit rho-1 (P24046 whole entry): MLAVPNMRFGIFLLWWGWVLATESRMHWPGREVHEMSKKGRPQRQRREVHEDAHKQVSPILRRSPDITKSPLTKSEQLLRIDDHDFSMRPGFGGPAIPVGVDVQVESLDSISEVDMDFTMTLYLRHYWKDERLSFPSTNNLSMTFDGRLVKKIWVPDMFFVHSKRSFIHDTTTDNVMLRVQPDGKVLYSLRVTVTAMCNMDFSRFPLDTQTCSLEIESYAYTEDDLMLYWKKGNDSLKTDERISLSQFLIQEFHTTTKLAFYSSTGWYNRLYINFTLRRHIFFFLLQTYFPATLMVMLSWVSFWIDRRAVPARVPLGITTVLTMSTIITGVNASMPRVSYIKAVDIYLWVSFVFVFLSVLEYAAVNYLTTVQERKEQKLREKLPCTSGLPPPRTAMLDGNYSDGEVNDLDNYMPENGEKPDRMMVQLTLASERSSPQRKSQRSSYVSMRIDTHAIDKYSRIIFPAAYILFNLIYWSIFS
Sequence of Sodium- and chloride-dependent GABA transporter 1 (P30531 whole entry, looked up): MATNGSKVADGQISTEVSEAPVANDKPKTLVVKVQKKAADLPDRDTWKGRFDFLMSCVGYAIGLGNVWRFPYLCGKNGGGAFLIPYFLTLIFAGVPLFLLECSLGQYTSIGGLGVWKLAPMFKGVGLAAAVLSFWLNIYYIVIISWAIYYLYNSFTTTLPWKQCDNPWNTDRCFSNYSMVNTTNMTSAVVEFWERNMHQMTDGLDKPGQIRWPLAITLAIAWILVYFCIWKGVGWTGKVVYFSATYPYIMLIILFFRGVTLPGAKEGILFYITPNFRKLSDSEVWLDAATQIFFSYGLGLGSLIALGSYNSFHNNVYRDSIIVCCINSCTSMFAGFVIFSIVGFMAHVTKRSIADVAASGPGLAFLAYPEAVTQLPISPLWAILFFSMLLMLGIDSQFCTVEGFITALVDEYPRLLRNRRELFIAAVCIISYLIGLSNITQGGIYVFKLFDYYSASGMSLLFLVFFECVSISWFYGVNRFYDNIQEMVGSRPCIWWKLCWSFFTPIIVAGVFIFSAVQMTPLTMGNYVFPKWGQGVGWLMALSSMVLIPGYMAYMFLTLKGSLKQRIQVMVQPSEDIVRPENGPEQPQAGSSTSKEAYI

Take `CC(C(=O)O)C1CSC(N)=N1` (stereo in doubt; l-10b): the pEC50 entry (in test [1]; in [4]; in the test listed under Homo sapiens [15]) was “inactive” each time. The Rmax result (in test [2]; in the test listed under Homo sapiens [3]; in [5]) was “inactive” in each case. Moreover, the Rmax in [6] stood at 34%; in test [7] it was 31%. In addition, the result (in test [8]; in test [9]; in the test listed under Homo sapiens [10]) was Active. Besides, the inhibition in test [11], in test [12], in test [13] and in test [14] was over 30% each time.

Values taken from ChEMBL document CHEMBL4396887, “Five-Membered N-Heterocyclic Scaffolds as Novel Amino Bioisosteres at γ-Aminobutyric Acid (GABA) Type A Receptors and GABA Transporters” (J Med Chem, 2019).
